Assay results from US9216991B2 (Ares Trading S.A., priority 2012, dated 2015).
Where a name gives a salt, the structure may show the parent alone.

Target: T1, IRAK4 (Homo sapiens, UniProt Q9NWZ3)
T1 construct: His (N); TEV cleavage site (N)
T1 sequence (Q9NWZ3 1-460): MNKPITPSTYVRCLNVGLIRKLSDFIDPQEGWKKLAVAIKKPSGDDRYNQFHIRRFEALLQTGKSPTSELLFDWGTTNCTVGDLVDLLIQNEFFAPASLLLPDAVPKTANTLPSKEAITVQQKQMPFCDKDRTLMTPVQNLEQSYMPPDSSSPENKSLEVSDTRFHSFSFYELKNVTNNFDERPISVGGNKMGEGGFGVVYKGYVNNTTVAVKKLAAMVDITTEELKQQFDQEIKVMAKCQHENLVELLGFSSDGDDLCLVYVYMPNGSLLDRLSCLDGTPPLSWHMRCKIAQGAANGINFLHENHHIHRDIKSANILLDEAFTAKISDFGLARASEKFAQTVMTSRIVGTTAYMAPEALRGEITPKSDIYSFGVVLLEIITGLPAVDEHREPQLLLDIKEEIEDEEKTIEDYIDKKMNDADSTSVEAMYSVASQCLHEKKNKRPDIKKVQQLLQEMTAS
Assay: IRAK4 Enzymatic Assay
Type: biochemical
Settings: His-TEV-IRAK4 20 ng/well, ATP 2 μM, STK1-biotin peptide 300 nM, 3 hours at 30° C., FlashPlate radioactivity
Method in brief: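 Radiometric FlashPlate readout: biotin-STK1 substrate (300 nM) captured on streptavidin after EDTA stop and washes. Reaction used His-TEV-IRAK4 (20 ng/well), 2 μM [^33P]-spiked ATP and compound (1 nM-20 μM), incubated 3 h at 30 °C in 50 mM HEPES pH 7.0, 10 mM MgCl2, 5 mM MnCl2, 2 mM DTT.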

Row | Structure (SMILES) | IC50
1 | Cn1cc(-c2cccc(-c3ncc(-c4cnn(CC5CCOC5)c4)cn3)c2)cn1 (stereo not drawn) [Example 45, 2-[3-(1-Methyl-1H-pyrazol-4-yl)-phenyl]-5-[1-(tetrahydro-furan-3-ylmethyl)-1H-pyrazol-4-yl]-pyrimidine] | 100 to 1000 nM
2 | Cn1cc(-c2cccc(-c3ncc(-c4cnn([C@H]5CC[C@H](C(=O)NCC#N)CC5)c4)cn3)c2)cn1 [Example 230, trans-4-(4-{2-[3-(1-Methyl-1H-pyrazol-4-yl)-phenyl]-pyrimidin-5-yl}-pyrazol-1-yl)-cyclohexanecarboxylic acid cyanomethyl-amide] | < 100 nM
3 | Cn1cc(-c2cccc(-c3ncc(-c4cnn([C@H]5CC[C@H](C(N)=O)CC5)c4)cn3)c2)cn1 [Example 206, Trans-4-(4-{2-[3-(1-Methyl-1H-pyrazol-4-yl)-phenyl]-pyrimidin-5-yl}-pyrazol-1-yl)-cyclohexanecarboxylic acid amide] | < 100 nM
4 | Cn1cc(-c2cccc(-c3ncc(-c4cnn(C5CCN(C(=O)C6CC(=O)C6)CC5)c4)cn3)c2)cn1 [Example 117, 3-[4-(4-{2-[3-(1-Methyl-1H-pyrazol-4-yl)-phenyl]-pyrimidin-5-yl}-pyrazol-1-yl)-piperidine-1-carbonyl]-cyclobutanone] | 100 to 1000 nM
5 | CCC(CO)NC(=O)Cn1cc(-c2cnc(-c3cccc(-c4cnn(C)c4)c3)nc2)cn1 (stereo not drawn) [Example 60, N-(1-Hydroxymethyl-propyl)-2-(4-{2-[3-(1-methyl-1H-pyrazol-4-yl)-phenyl]-pyrimidin-5-yl}-pyrazol-1-yl)-acetamide] | 1000 to 5000 nM
6 | Cn1cc(-c2cccc(-c3ncc(-c4cnn(C5CCNCC5(F)F)c4)cn3)c2)cn1 (stereo not drawn) [Example 259, 5-[1-(3,3-Difluoro-piperidin-4-yl)-1H-pyrazol-4-yl]-2-[3-(1-methyl-1H-pyrazol-4-yl)-phenyl]-pyrimidine] | 100 to 1000 nM
7 | CC(=O)N1CCC(n2cc(-c3cnc(-c4cccc(-c5cnn(C)c5)c4)nc3)cn2)C(F)(F)C1 (stereo not drawn) [Example 284, 1-[3,3-Difluoro-4-(4-{2-[3-(1-methyl-1H-pyrazol-4-yl)-phenyl]-pyrimidin-5-yl}-pyrazol-1-yl)-piperidin-1-yl]-ethanone] | < 100 nM
8 | NCCCn1cc(-c2cccc(-c3ncc(-c4cnn(CC(=O)N5CCCC5)c4)cn3)c2)cn1 [Example 42, 2-[4-(2-{3-[1-(3-Amino-propyl)-1H-pyrazol-4-yl]-phenyl}-pyrimidin-5-yl)-pyrazol-1-yl]-1-pyrrolidin-1-yl-ethanone hydrochloride] | 1000 to 5000 nM
9 | CN(C)C(=O)Cn1cc(-c2cnc(-c3cccc(-c4cnn(C)c4)c3)nc2)cn1 [Example 38, N,N-Dimethyl-2-(4-{2-[3-(1-methyl-1H-pyrazol-4-yl)-phenyl]-pyrimidin-5-yl}-pyrazol-1-yl)-acetamide] | 100 to 1000 nM
10 | Cn1cc(-c2cccc(-c3ncc(-c4cnn(C5CCNCC5)c4)cn3)c2)cn1 [Example 1, 2-[3-(1-Methyl-1H-pyrazol-4-yl)-phenyl]-5-(1-piperidin-4-yl-1H-pyrazol-4-yl)-pyrimidine hydrochloride] | 100 to 1000 nM
11 | Cn1cc(-c2cccc(-c3ncc(-c4cnn(CCc5ccncc5)c4)cn3)c2)cn1 [Example 53, 2-[3-(1-Methyl-1H-pyrazol-4-yl)-phenyl]-5-[1-(2-pyridin-4-yl-ethyl)-1H-pyrazol-4-yl]-pyrimidine] | < 100 nM
12 | CCN(C)C(=O)[C@H]1CC[C@H](n2cc(-c3cnc(-c4cccc(-c5cnn(C)c5)c4)nc3)cn2)CC1 [Example 204, 4-(4-{2-[3-(1-Methyl-1H-pyrazol-4-yl)-phenyl]-pyrimidin-5-yl}-pyrazol-1-yl)-cyclohexanecarboxylic acid ethyl-methyl-amide] | < 100 nM
13 | CC(O)CCNC(=O)[C@H]1CC[C@H](n2cc(-c3cnc(-c4cccc(-c5cnn(C)c5)c4)nc3)cn2)CC1 (stereo partly drawn) [Example 228, trans-4-(4-{2-[3-(1-Methyl-1H-pyrazol-4-yl)-phenyl]-pyrimidin-5-yl}-pyrazol-1-yl)-cyclohexanecarboxylic acid (3-hydroxy-butyl)-amide] | < 100 nM
14 | c1cc(-c2ccncc2)cc(-c2ncc(-c3cnn(C4CCNCC4)c3)cn2)c1 [Example 33, 5-(1-Piperidin-4-yl-1H-pyrazol-4-yl)-2-(3-pyridin-4-yl-phenyl)-pyrimidine hydrochloride] | 100 to 1000 nM
15 | Cn1cc(-c2cccc(-c3ncc(-c4cnn(CC(=O)NC5CCOCC5)c4)cn3)c2)cn1 [Example 54, 2-(4-{2-[3-(1-Methyl-1H-pyrazol-4-yl)-phenyl]-pyrimidin-5-yl}-pyrazol-1-yl)-N-(tetrahydro-pyran-4-yl)-acetamide] | 100 to 1000 nM
16 | Cn1cc(-c2cccc(-c3ncc(-c4cn[nH]c4)cn3)c2)cn1 [Example 3, 2-[3-(1-methyl-1H-pyrazol-4-yl)phenyl]-5-(1H-pyrazol-4-yl)pyrimidine] | 100 to 1000 nM
17 | CO[C@H]1CCN(C(=O)[C@H]2CC[C@H](n3cc(-c4cnc(-c5cccc(-c6cnn(C)c6)c5)nc4)cn3)CC2)C1 [Example 191, Trans-((S)-3-Methoxy-pyrrolidin-1-yl)-[4-(4-{2-[3-(1-methyl-1H-pyrazol-4-yl)-phenyl]-pyrimidin-5-yl}-pyrazol-1-yl)-cyclohexyl]-methanone] | < 100 nM
18 | COCCC1CN(C(=O)Cn2cc(-c3cnc(-c4cccc(-c5cnn(C)c5)c4)nc3)cn2)CCO1 (stereo not drawn) [Example 87, 1-[2-(2-Methoxy-ethyl)-morpholin-4-yl]-2-(4-{2-[3-(1-methyl-1H-pyrazol-4-yl)-phenyl]-pyrimidin-5-yl}-pyrazol-1-yl)-ethanone] | 100 to 1000 nM
19 | Cn1cc(-c2cccc(-c3ncc(-c4cnn(C5CCN(C6CCOCC6)CC5)c4)cn3)c2)cn1 [Example 39, 2-[3-(1-Methyl-1H-pyrazol-4-yl)-phenyl]-5-{1-[1-(tetrahydro-pyran-4-yl)-piperidin-4-yl]-1H-pyrazol-4-yl}-pyrimidine] | < 100 nM
20 | Cn1cc(-c2cccc(-c3ncc(-c4cnn([C@@H]5CCCNC5)c4)cn3)c2)cn1 [Example 183, 2-[3-(1-Methyl-1H-pyrazol-4-yl)-phenyl]-5-((R)-1-piperidin-3-yl-1H-pyrazol-4-yl)-pyrimidine] | 100 to 1000 nM
21 | CC(=O)N1[C@@H]2COC[C@H]1C[C@H](n1cc(-c3cnc(-c4cccc(-c5cnn(C)c5)c4)nc3)cn1)C2 [Example 193, exo-1-[7-(4-{2-[3-(1-Methyl-1H-pyrazol-4-yl)-phenyl]-pyrimidin-5-yl}-pyrazol-1-yl)-3-oxa-9-aza-bicyclo[3.3.1]non-9-yl]-ethanone] | 100 to 1000 nM
22 | Cn1cc(-c2cccc(-c3ncc(-c4cnn([C@H]5CC[C@H](CO)CC5)c4)cn3)c2)cn1 [Example 238, Trans-[4-(4-{2-[3-(1-Methyl-1H-pyrazol-4-yl)-phenyl]-pyrimidin-5-yl}-pyrazol-1-yl)-cyclohexyl]-methanol] | < 100 nM
23 | O=C(Cn1cc(-c2cccc(-c3ncc(-c4cnn(C5CCNCC5)c4)cn3)c2)cn1)N1CCCC1 [Example 17, 2-(4-{3-[5-(1-Piperidin-4-yl-1H-pyrazol-4-yl)-pyrimidin-2-yl]-phenyl}-pyrazol-1-yl)-1-pyrrolidin-1-yl-ethanone hydrochloride] | 1000 to 5000 nM
24 | Cn1cc(-c2cccc(-c3ncc(-c4cnn(C5CCSC5)c4)cn3)c2)cn1 (stereo not drawn) [Example 216, 2-[3-(1-Methyl-1H-pyrazol-4-yl)-phenyl]-5-[1-(tetrahydro-thiophen-3-yl)-1H-pyrazol-4-yl]-pyrimidine] | 100 to 1000 nM
25 | CN1CCN(C(=O)Cn2cc(-c3cnc(-c4cccc(-c5cnn(C)c5)c4)nc3)cn2)CC1 [Example 51, 1-(4-Methyl-piperazin-1-yl)-2-(4-{2-[3-(1-methyl-1H-pyrazol-4-yl)-phenyl]-pyrimidin-5-yl}-pyrazol-1-yl)-ethanone hydrochloride] | 100 to 1000 nM
26 | Cn1cc(-c2cccc(-c3ncc(-c4cnn(C5CCN(S(C)(=O)=O)CC5)c4)cn3)c2)cn1 [Example 76, 5-[1-(1-Methanesulfonyl-piperidin-4-yl)-1H-pyrazol-4-yl]-2-[3-(1-methyl-1H-pyrazol-4-yl)-phenyl]-pyrimidine] | 100 to 1000 nM
27 | Cn1cc(-c2cccc(-c3ncc(-c4cnn(CCc5ccccn5)c4)cn3)c2)cn1 [Example 47, 2-[3-(1-Methyl-1H-pyrazol-4-yl)-phenyl]-5-[1-(2-pyridin-2-yl-ethyl)-1H-pyrazol-4-yl]-pyrimidine] | 100 to 1000 nM
28 | COCCN(C)C(=O)[C@H]1CC[C@H](n2cc(-c3cnc(-c4cccc(-c5cnn(C)c5)c4)nc3)cn2)CC1 [Example 152, Trans-4-(4-{2-[3-(1-Methyl-1H-pyrazol-4-yl)-phenyl]-pyrimidin-5-yl}-pyrazol-1-yl)-cyclohexanecarboxylic acid (2-methoxy-ethyl)-methyl-amide] | < 100 nM
29 | Cc1nn(C2CCC(O)CC2)cc1-c1cnc(-c2cccc(-c3cnn(C)c3)c2)nc1 (stereo not drawn) [Example 291, 4-(3-Methyl-4-{2-[3-(1-methyl-1H-pyrazol-4-yl)-phenyl]-pyrimidin-5-yl}-pyrazol-1-yl)-cyclohexanol] | 100 to 1000 nM
30 | COCCO[C@H]1CC[C@H](n2cc(-c3cnc(-c4cccc(-c5cnn(C)c5)c4)nc3)cn2)CC1 [Example 217, trans-5-{1-[4-(2-Methoxy-ethoxy)-cyclohexyl]-1H-pyrazol-4-yl}-2-[3-(1-methyl-1H-pyrazol-4-yl)-phenyl]-pyrimidine] | < 100 nM
